US7288535B2, “Methods and compositions for stimulating bone growth using nitric oxide releasing bisphosphonate conjugates” (OsteoScreen, Inc., priority 2002, dated 2007)
Where two headings read alike, the source gives them in different places. Marks after values point to notes of the source that are not given here.

Columns and labels:
human stomach = conditions: healthy volunteers, doses prescribed for osteoporosis and Pagets disease of bone; cited from earlier work
[1] = system: neonatal murine calvarial incubation media; conditions: mean ± standard error (n=5)
Procedure: (§1) An assay for bone resorption or bone formation is similar to that described by Gowen M. & Mundy G., J Immunol (1986) 136:2478-82. Briefly, four days after birth, the front and parietal bones of ICR Swiss white mouse pups are removed by microdissection and split along the sagittal suture. […] The medium used when the assay is conducted to assess bone formation is Fitton and Jackson Modified BGJ Medium (Sigma) supplemented with 6 ug/ml insulin, 6 ug/ml transferrin, 6 ng/ml selenous acid, calcium and phosphate concentrations of 1.25 and 3.0 mM, respectively, and ascorbic acid to a concentration of 100 ug/ml is added every two days. The incubation is conducted at 37° C. in a humidified atmosphere of 5% CO2 and 95% air for 96 hours.
These neonatal murine calvaria do contain measurable levels of alkaline phosphatase and this can be measured either from the calvaria itself or to some degree in the incubation media as a semi-quantitative measurement of bone formation activity. For measurement of alkaline phosphatase activity in the media, 50 ul is removed at the end of the assay. The activity is then measured using standard alkaline phosphatase reagents.
Alkaline phosphatase activity is measured in the incubation media as detailed described above in “Techniques for Neonatal Mouse Calvaria Assay (in vitro)).

[2] = system: Neonatal Murine Calvariae; conditions: mean ± standard error (n=5)
Procedure: as §1
The bones are removed from the incubation media and fixed in 10% buffered formalin for 24-48 hours, decalcified in 14% EDTA for 1 week, processed through graded alcohols; and embedded in paraffin wax. Three μm sections of the calvaria are prepared. Representative sections are selected for histomorphometric assessment of bone formation or bone resorption. Bone changes are measured on sections cut 200 μm apart. Osteoblasts and osteoclasts are identified by their distinctive morphology.
Selected compounds and appropriate controls were assayed in vitro (ex vivo) for bone formation activity (described above in “Techniques for Neonatal Mouse Calvaria Assay (in vitro)). Histomorphometrical assessments of ex vivo calvaria were carried out using an OsteoMetrics bone morphometry measurement program, according to the manufacturer's instructions. Measurements were determined using either a 10- or 20-fold objective with a standard point counting eyepiece graticule.
New bone formation was determined (using a 20× objective) by measuring the new bone area formed in one field in 3 representative sections of each bone (4 bones per group). Each measurement was carried out ½ field distance from the end of the suture. Both total bone and old bone area were measured. Data were expressed as new bone width in mm.
Osteoblast numbers are determined by point counting. The number of osteoblast cells lining the bone surface on both sides of the bone are counted in one field using a 20× objective. Data are expressed as osteoblast numbers/mm of bone surface.

## NCCCC(O)(P(=O)(O)O)P(=O)(O)O [Alendronate, (4-animo-1-hydroxybutylidene)bis-phosphonate]
Human stomach
  injury to the stomach: cause erosions and ulcers in the human stomach
[1]; 0.1 uM
  Alkaline Phosphatase OD: 0.030 ± 0.009 OD
[1]; 1 uM
  Alkaline Phosphatase OD: 0.031 ± 0.010 OD
[1]; 10 uM
  Alkaline Phosphatase OD: 0.034 ± 0.001 OD
[1]; 100 uM
  Alkaline Phosphatase OD: 0.038 ± 0.003 OD
[2]; 0.1 uM
  Cell Number/0.3 mm bone: 98± 6 /0.3 mm bone
  New Bone Area: 2.9 ± 0.1 mm^2 × 10^−3
[2]; 1 uM
  Cell Number/0.3 mm bone: 103± 4 /0.3 mm bone
  New Bone Area: 3.2 ± 0.5 mm^2 × 10^−3
[2]; 10 uM
  Cell Number/0.3 mm bone: 101± 5 /0.3 mm bone
  New Bone Area: 2.7 ± 0.2 mm^2 × 10^−3
[2]; 100 uM
  Cell Number/0.3 mm bone: 97± 3 /0.3 mm bone
  New Bone Area: 3.1 ± 0.3 mm^2 × 10^−3

## O=C(NCCCC(O)(P(=O)(O)O)P(=O)(O)O)c1ccc(CO[N+](=O)[O-])cc1 [NOX-Alendronate, [4-(4′-nitrooxymethyl)benzoylamino-1-hydroxybutylidene]-bis-phosphonate]
[1]; 0.1 uM
  Alkaline Phosphatase OD: 0.029 ± 0.007 OD
[1]; 1 uM
  Alkaline Phosphatase OD: 0.023 ± 0.001 OD
[1]; 10 uM
  Alkaline Phosphatase OD: 0.053 ± 0.007 OD
[1]; 100 uM
  Alkaline Phosphatase OD: 0.072 ± 0.003 OD
[2]; 0.1 uM
  Cell Number/0.3 mm bone: 104 ± 8 /0.3 mm bone
  New Bone Area: 3.6 ± 0.6 mm^2 × 10^−3
[2]; 1 uM
  Cell Number/0.3 mm bone: 115 ± 5 /0.3 mm bone
  New Bone Area: 4.2 ± 0.4 mm^2 × 10^−3
[2]; 10 uM
  Cell Number/0.3 mm bone: 132 ± 5 /0.3 mm bone
  New Bone Area: 6.7 ± 0.7* mm^2 × 10^−3
[2]; 100 uM
  Cell Number/0.3 mm bone: 124 ± 2 /0.3 mm bone
  New Bone Area: 5.4 ± 0.3* mm^2 × 10^−3
